One may read the melting point as the temperature, or range, at which the solid turns liquid.

Experimental findings from patent US11306095B2 (EAST CHINA UNIVERSITY OF SCIENCE AND TECHNOLOGY, priority 2015, dated 2022) are described below.

In brackets after ≈: the same amount, converted by molar mass. Some results are limits rather than exact numbers.

Series [1] has as its system H1975 cells (EGFR L858R/T790M). The series can be described thus: Inhibitory activity on cell proliferation, H1975. It is filed as cell-based. The note with it: Homo sapiens, NCI-H1975; H1975, 72 hours; read-out: Inhibitory activity on proliferation of cells (IC50, μM) H1975.
Another series deals with T1, EGFR-L858R/T790M (Homo sapiens, UniProt P00533, L858R/T790M).
T1 construct: purchased Invitrogen PV4879
The series can be described thus: Kinase activity test (FRET), EGFR T790M/L858R. The class given is biochemical. The note with it: EGFR T790M/L858R; read-out: Inhibitory activity of EGFR on kinase (IC50, nM) T790M/L858R. A digest of the protocol: (§1)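 FRET assay with coumarin/fluorescein-labelled poly(Glu, Tyr)4:1 peptide and ATP, compounds at 5.1×10^−11 to 1.0×10^−6 mol/L final. Kinase reaction 1.5 h at room temperature, then 1 h development cleaving unphosphorylated peptide.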

For series [2], the system named is A431 cells (EGFR wild type). The series can be described thus: Inhibitory activity on cell proliferation, A431. The note with it: Homo sapiens, A-431; A431, 72 hours; read-out: Inhibitory activity on proliferation of cells (IC50, μM) A431. The class given is cell-based.
Series [3] in a line: Determination of solubility in water (PBS 20 mM, pH 6.8). The class given is physicochemical. The note with it: PBS buffer, aqueous buffer, thermodynamic from solid; pH 6.8, 20 mM PBS; read-out: Solubility (pH 6.8, g/mL). A digest of the protocol:
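Compound suspension filtered (0.22 μm PVDF), diluted in 50% methanol/50% PBS, absorbance read by UV spectrophotometry. Solubility calculated from a standard curve of 0.01–0.05 mg/mL methanol-derived solutions (r > 0.998).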

For the next series, the target named is T2, Wild type EGFR (Homo sapiens, UniProt P00533).
T2 construct: purchased Invitrogen PV3872
The series can be described thus: Kinase activity test (FRET), wild type EGFR. It is filed as biochemical. The following applies: wild type EGFR; read-out: Inhibitory activity of EGFR on kinase (IC50, nM) WT. In short, it runs like this:
as §1

T1 sequence (P00533 25-1210 T790M/L858R): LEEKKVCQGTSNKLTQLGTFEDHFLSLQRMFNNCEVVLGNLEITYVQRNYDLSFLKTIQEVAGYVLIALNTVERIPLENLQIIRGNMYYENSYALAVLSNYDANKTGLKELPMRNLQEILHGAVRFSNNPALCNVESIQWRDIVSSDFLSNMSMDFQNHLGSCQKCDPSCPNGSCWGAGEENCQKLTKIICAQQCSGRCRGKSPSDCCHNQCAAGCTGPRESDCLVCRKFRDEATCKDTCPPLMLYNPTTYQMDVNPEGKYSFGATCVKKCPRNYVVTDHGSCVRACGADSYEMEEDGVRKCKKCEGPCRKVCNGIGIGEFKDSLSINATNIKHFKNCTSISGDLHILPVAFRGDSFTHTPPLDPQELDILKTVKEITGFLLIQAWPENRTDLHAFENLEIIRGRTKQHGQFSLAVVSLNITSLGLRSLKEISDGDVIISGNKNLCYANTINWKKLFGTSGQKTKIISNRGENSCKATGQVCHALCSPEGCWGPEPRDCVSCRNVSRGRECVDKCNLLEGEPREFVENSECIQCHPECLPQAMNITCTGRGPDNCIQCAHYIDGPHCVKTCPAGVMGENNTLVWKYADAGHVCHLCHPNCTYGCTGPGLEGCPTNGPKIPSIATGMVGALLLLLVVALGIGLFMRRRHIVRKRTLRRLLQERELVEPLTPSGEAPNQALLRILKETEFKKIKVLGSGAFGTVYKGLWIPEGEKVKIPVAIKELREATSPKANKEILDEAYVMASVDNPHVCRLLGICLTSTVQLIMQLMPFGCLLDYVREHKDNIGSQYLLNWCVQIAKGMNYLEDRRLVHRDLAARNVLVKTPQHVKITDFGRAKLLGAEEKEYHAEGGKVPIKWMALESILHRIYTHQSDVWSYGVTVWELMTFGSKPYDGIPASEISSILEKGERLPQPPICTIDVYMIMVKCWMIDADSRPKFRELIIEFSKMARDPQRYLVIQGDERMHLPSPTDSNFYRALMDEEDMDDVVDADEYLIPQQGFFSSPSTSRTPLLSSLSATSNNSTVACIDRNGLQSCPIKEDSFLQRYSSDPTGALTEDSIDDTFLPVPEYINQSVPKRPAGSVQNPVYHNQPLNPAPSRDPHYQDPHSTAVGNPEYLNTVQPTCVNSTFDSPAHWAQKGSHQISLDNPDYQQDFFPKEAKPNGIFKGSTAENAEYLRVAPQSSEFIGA
T2 sequence (P00533 25-1210): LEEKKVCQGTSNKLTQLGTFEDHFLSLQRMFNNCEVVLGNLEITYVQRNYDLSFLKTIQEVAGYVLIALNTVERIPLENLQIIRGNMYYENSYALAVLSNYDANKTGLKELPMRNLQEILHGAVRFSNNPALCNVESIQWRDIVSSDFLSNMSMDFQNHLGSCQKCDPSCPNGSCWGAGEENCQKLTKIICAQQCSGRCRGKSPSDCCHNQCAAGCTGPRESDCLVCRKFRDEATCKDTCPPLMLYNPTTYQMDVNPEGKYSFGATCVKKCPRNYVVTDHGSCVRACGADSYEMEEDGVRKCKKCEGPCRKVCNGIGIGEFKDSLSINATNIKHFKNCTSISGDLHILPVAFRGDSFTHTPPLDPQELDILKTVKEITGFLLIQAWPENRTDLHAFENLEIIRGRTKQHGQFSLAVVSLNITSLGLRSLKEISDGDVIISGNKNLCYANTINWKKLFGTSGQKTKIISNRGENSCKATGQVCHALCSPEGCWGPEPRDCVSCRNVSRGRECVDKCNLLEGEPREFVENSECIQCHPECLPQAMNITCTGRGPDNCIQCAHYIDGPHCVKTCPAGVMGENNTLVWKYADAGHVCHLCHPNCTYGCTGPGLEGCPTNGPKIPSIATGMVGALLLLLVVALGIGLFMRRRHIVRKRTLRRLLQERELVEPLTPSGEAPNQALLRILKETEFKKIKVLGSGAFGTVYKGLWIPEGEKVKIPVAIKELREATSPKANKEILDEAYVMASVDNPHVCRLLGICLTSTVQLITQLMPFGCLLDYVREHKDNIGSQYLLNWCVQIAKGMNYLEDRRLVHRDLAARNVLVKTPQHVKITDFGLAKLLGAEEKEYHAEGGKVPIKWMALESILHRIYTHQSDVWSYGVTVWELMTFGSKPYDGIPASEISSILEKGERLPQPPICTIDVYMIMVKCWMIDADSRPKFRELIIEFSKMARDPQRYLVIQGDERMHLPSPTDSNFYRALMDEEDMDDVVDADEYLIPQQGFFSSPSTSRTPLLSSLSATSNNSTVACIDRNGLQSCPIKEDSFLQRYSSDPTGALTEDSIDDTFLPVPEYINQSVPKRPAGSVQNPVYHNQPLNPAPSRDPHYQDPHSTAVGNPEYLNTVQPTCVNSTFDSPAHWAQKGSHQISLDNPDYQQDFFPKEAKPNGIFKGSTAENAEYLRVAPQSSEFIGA

Take `COc1cc(N2CCN(C)CC2)ccc1Nc1ncc2nc(-c3ccccc3)c(=O)n(-c3cccc(N)c3)c2n1` [Compound 51, 8-(3-aminophenyl)-2-((2-methoxy-4-(4-methyl-1-piperazinyl)phenyl)amino)-6-phenyl-7(8H)pteridinone]: the melting point lay within 235.5 to 235.7 °C. The IC50 in series [1] was 5.34 µM. Further, at EGFR-L858R/T790M, the IC50 is 251 nM. Besides, the IC50 in series [2] stood at 2.06 µM. Moreover, the solubility in series [3] is < 10 µg/mL. Besides, the IC50 on Wild type EGFR is 16.6 nM.
Molecule `C=CC(=O)Nc1cccc(-n2c(=O)cnc3cnc(Nc4ccc(N5CCN(C)CC5)cc4OCOC)nc32)c1` [Compound 9, N-(3-(2-((2-(methoxymethoxy)-4-(4-methyl-1-piperazinyl)phenyl)amino)-7-oxo-8(7H)-pteridinyl)phenyl)acrylamide] had a melting point of 187.3 to 188.1 °C. For the same molecule, in series [1], the IC50 stood at 1.04 µM. Moreover, the IC50 at EGFR-L858R/T790M was found to be 20.8 nM. In addition, in series [2], the IC50 came to 2.81 µM. In addition, the solubility in series [3] amounted to 163 µg/mL (≈ 300 µM). Besides, the IC50 at Wild type EGFR was determined as 23.4 nM.
As for `C=CC(=O)Nc1cccc(-n2c(=O)c(-c3ccccc3)nc3cnc(Nc4cc(C)c(N5CCN(C)CC5)cc4OC)nc32)c1` [Compound 38, N-(3-(2-((2-methoxy-5-methyl-4-(4-methyl-1-piperazinyl)phenyl)amino)-7-oxo-6-phenyl-8(7H)pteridinonyl)phenyl)acrylamide], the melting point was 292.9 to 293.4 °C. Also, the IC50 in series [1] is 0.165 µM. Further, the IC50 on EGFR-L858R/T790M came to 0.6 nM. Also, the IC50 in series [2] was found to be 2.35 µM. In addition, the solubility in series [3] is < 10 µg/mL. Also, the IC50 at Wild type EGFR turned out to be 2.8 nM.
As to `C=CC(=O)N1CC[C@H](n2c(=O)c(-c3ccccc3)nc3cnc(Nc4ccc(N(C)CCN(C)C)c(C)c4)nc32)C1` [Compound 40], the melting point lay within 256.1 to 256.4 °C. Further, the IC50 in series [1] turned out to be 1.05 µM. The IC50 at EGFR-L858R/T790M was determined as 73.1 nM. Moreover, the IC50 in series [2] was found to be 1.38 µM. Moreover, the solubility in series [3] was > 10 µg/mL. Further, at Wild type EGFR, the IC50 was > 10000 nM.
`C=CC(=O)Nc1cccc(-n2c(=O)c(C(C)C)nc3cnc(Nc4ccc(N5CCN(C)CC5)c(OC)c4)nc32)c1` [Compound 32, N-(3-(6-isopropyl-2-((3-methoxy-4-(4-methyl-1-piperazinyl)phenyl)amino)-7-oxo-8(7H)pteridinyl)phenyl)acrylamide] returned a melting point of 249 to 249.5 °C. Further, the IC50 in series [1] was 0.033 µM. Besides, the IC50 on EGFR-L858R/T790M was 7.1 nM. The IC50 in series [2] stood at 2.75 µM. Besides, the solubility in series [3] is < 10 µg/mL. The IC50 at Wild type EGFR was 1.3 nM.
Molecule `C=CC(=O)Nc1cccc(-n2c(=O)c(-c3ccc(OC)cc3)nc3cnc(Nc4ccc(N5CCN(C)CC5)cc4OC)nc32)c1` [Compound 54, N-(3-(2-((2-methoxy-4-(4-methyl-1-piperazinyl)phenyl)amino)-6-(4-methoxyphenyl)-7-oxo-8(7H)pteridinyl)phenyl)acrylamide] returned a melting point of 296.5 to 297.3 °C. Moreover, in series [1], the IC50 was determined as 1.06 µM. The IC50 at EGFR-L858R/T790M is 3.5 nM. Besides, in series [2], the IC50 stood at 4.1 µM. In series [3], the solubility is < 10 µg/mL. For the same molecule, the IC50 at Wild type EGFR was 1.5 nM.
`C=CC(=O)N1CCC[C@@H](n2c(=O)c(-c3ccccc3)nc3cnc(Nc4ccc(N5CCN(C)CC5)cc4OC)nc32)C1` [Compound 45, (R)-8-(1-acryloyl-3-piperidinyl)-2-((2-methoxy-4-(4-methyl-1-piperazinyl)phenyl)amino)-6-phenyl-7(8H)pteridinone] had a melting point of 134.9 to 135.1 °C. The IC50 in series [1] was 1.78 µM. In addition, at EGFR-L858R/T790M, the IC50 was > 1000 nM. Besides, in series [2], the IC50 turned out to be 4.28 µM. The solubility in series [3] was < 10 µg/mL. Moreover, at Wild type EGFR, the IC50 was > 1000 nM.
Regarding `C=CC(=O)Nc1cccc(-n2c(=O)c(-c3ccc(F)c(F)c3)nc3cnc(Nc4ccc(N5CCN(C)CC5)cc4OC)nc32)c1` [Compound 56, N-(3-(6-(3,4-difluorophenyl)-2-((2-methoxy-4-(4-methyl-1-piperazinyl)phenyl)amino)-7-oxo-8(7H)pteridinyl)phenyl)acrylamide], the melting point is > 300 °C. In series [1], the IC50 worked out at 0.228 µM. For the same molecule, the IC50 on EGFR-L858R/T790M is 1.7 nM. For the same molecule, in series [2], the IC50 stood at 1.2 µM. For the same molecule, in series [3], the solubility is < 10 µg/mL. Moreover, the IC50 on Wild type EGFR turned out to be 1.6 nM.
`C=CC(=O)Nc1cccc(-n2c(=O)c(-c3ccccc3)nc3cnc(Nc4ccc(N5CCN(C)CC5)c(C)c4)nc32)c1` [Compound 47, N-(3-(2-((3-methyl-4-(4-methyl-1-piperazinyl)phenyl)amino)-7-oxy-6-phenyl-8(7H)pteridinyl)phenyl)acrylamide] returned a melting point of 265 to 265.2 °C. The IC50 in series [1] was 0.018 µM. For the same molecule, the IC50 on EGFR-L858R/T790M was determined as 0.2 nM. Also, in series [2], the IC50 is 1.73 µM. In series [3], the solubility is < 10 µg/mL. Moreover, the IC50 at Wild type EGFR is 0.5 nM.
In the case of `C=CC(=O)N1CC[C@H](n2c(=O)c(-c3ccccc3)nc3cnc(Nc4ccc(N(C)CCN(C)C)c(OC)c4)nc32)C1` [Compound 41], the melting point was in the range of 260 to 260.2 °C. In series [1], the IC50 stood at 1.19 µM. Besides, on EGFR-L858R/T790M, the IC50 was 38.6 nM. Also, in series [2], the IC50 is 1.26 µM. Moreover, the solubility in series [3] was > 10 µg/mL. For the same molecule, the IC50 on Wild type EGFR was determined as 5350 nM.
Regarding `COc1cc(N2CCN(C)CC2)ccc1Nc1ncc2ncc(=O)n(C3CCN(C(=O)/C=C/CN(C)C)CC3)c2n1` [Compound 30, (E)-8-(1-(4-(dimethylamino)-2-butenoyl)-4-piperidinyl)-2-((2-methoxy-4-(4-methyl-1-piperazinyl)phenyl)amino)-7(8H)pteridinone], the melting point fell in the range of 157.3 to 157.6 °C. Moreover, in series [1], the IC50 turned out to be 8.69 µM. Moreover, the IC50 on EGFR-L858R/T790M is > 1000 nM. For the same molecule, the IC50 in series [2] is > 10 µM. Further, in series [3], the solubility is > 10 µg/mL. Moreover, the IC50 at Wild type EGFR is > 1000 nM.
Take `C=CC(=O)Nc1cccc(-n2c(=O)c(-c3ccccc3)nc3cnc(Nc4ccc(N5CCN(C)CC5)c(OC)c4)nc32)c1` [Compound 42, N-(3-(2-((3-methoxy-4-(4-methyl-1-piperazinyl)phenyl)amino)-7-oxo-6-phenyl-8(7H)pteridinyl)phenyl)acrylamide]: the melting point was 264.7 to 265.5 °C. Besides, the IC50 in series [1] was 0.003 µM. Also, the IC50 at EGFR-L858R/T790M was determined as 47.5 nM. The IC50 in series [2] came out at 0.328 µM. The solubility in series [3] is < 10 µg/mL. For the same molecule, the IC50 at Wild type EGFR is 528 nM.
The molecule `C=CC(=O)N1CC[C@H](n2c(=O)c(C3CCCCC3)nc3cnc(Nc4ccc(N5CCN(C)CC5)cc4OC)nc32)C1` [Compound 50, (S)-8-(1-acryloyl-3-pyrrolidinyl)-6-cyclohexyl-2-((2-methoxy-4-(4-methyl-1-piperazinyl)phenyl)amino)-7(8H)pteridinone] returned a melting point of 117.9 to 118.2 °C. For the same molecule, the IC50 in series [1] was 1.24 µM. The IC50 on EGFR-L858R/T790M was 86.9 nM. Also, the IC50 in series [2] amounted to 1.11 µM. Besides, the solubility in series [3] is 719 µg/mL (≈ 1260 µM). The IC50 at Wild type EGFR turned out to be 2.7 nM.
Consider `C=CC(=O)Nc1cccc(-n2c(=O)c(-c3cccc(OC)c3)nc3cnc(Nc4ccc(N5CCN(C)CC5)cc4OC)nc32)c1` [Compound 57, N-(3-(2-((2-methoxy-4-(4-methyl-1-piperazinyl)phenyl)amino)-6-(3-methoxyphenyl)-7-oxo-8(7H)pteridinyl)phenyl)acrylamide], for which the melting point was > 300 °C. For the same molecule, in series [1], the IC50 was determined as 0.225 µM. At EGFR-L858R/T790M, the IC50 worked out at 1.8 nM. The IC50 in series [2] stood at 1.37 µM. Further, the solubility in series [3] is < 10 µg/mL. The IC50 at Wild type EGFR was found to be 2.8 nM.
